# Laboratory results published in patent US20240158348A1, “HERBICIDAL CYCLIC AMIDES N-SUBSTITUTED WITH A HALOALKYLSULFONYLANILIDE GROUP” (FMC Corporation, priority 2021, published 2024).
# Experiments:
# Format in all cases: in vivo
# corn (Zea mays) [1] = assay: Test C preemergence, corn; conditions: 0 is no effect, 100 is complete control
# From the text: (§1) Seeds of plant species selected from blackgrass (Alopecurus myosuroides), corn (Zea mays), foxtail, giant (giant foxtail, Setaria faberi), goosegrass (Eleusine indica), kochia (Bassia scoparia), oat, wild (wild oat, Avena fatua), pigweed, palmer (palmer amaranth, Amaranthus palmeri), ragweed (common ragweed, Ambrosia artemisiifolia), ryegrass, Italian (Italian ryegrass, Lolium multiflorum), soybean (Glycine max) and wheat (Triticum aestivum) were planted into a blend of loam soil and sand and treated preemergence with a directed soil spray using test chemicals formulated in a non-phytotoxic solvent mixture which included a surfactant.
# (§2) At the same time, plants selected from these crop and weed species and also galium (catchweed bedstraw, Galium aparine) and horseweed (Erigeron canadensis) were planted in pots containing the same blend of loam soil and sand and treated with postemergence applications of test chemicals formulated in the same manner. Plants ranged in height from 2 to 10 cm and were in the one- to two-leaf stage for the postemergence treatment. Treated plants and untreated controls were maintained in a greenhouse for 10 or 12 days, after which time all treated plants were compared to untreated controls and visually evaluated for injury. Plant response ratings, summarized in Table A, are based on a 0 to 100 scale where 0 is no effect and 100 is complete control. A dash (-) response means no test result.
# [2] = tested on: foxtail, giant (giant foxtail, Setaria faberi); assay: Test C preemergence, giant foxtail; conditions: 0 is no effect, 100 is complete control
# From the text: as §1, §2
# [3] = tested on: goosegrass (Eleusine indica); assay: Test C preemergence, goosegrass; conditions: 0 is no effect, 100 is complete control
# From the text: as §1, §2
# kochia (Bassia scoparia) [4] = assay: Test C preemergence, kochia; conditions: 0 is no effect, 100 is complete control
# From the text: as §1, §2
# [5] = tested on: oat, wild (wild oat, Avena fatua); assay: Test C preemergence, wild oat; conditions: 0 is no effect, 100 is complete control
# From the text: as §1, §2
# [6] = tested on: pigweed, palmer (palmer amaranth, Amaranthus palmeri); assay: Test C preemergence, palmer amaranth; conditions: 0 is no effect, 100 is complete control
# From the text: as §1, §2
# [7] = tested on: ragweed (common ragweed, Ambrosia artemisiifolia); assay: Test C preemergence, ragweed; conditions: 0 is no effect, 100 is complete control
# From the text: as §1, §2
# [8] = tested on: ryegrass, Italian (Italian ryegrass, Lolium multiflorum); assay: Test C preemergence, Italian ryegrass; conditions: 0 is no effect, 100 is complete control
# From the text: as §1, §2
# soybean (Glycine max) [9] = assay: Test C preemergence, soybean; conditions: 0 is no effect, 100 is complete control
# From the text: as §1, §2
# [10] = tested on: wheat (Triticum aestivum); assay: Test C preemergence, wheat; conditions: 0 is no effect, 100 is complete control
# From the text: as §1, §2
# [11] = tested on: blackgrass (Alopecurus myosuroides); assay: Test C postemergence, blackgrass; conditions: visual injury, 0 to 100 scale (0 no effect, 100 complete control)
# From the text: as §1, §2
# corn (Zea mays) [12] = assay: Test C postemergence, corn; conditions: visual injury, 0 to 100 scale (0 no effect, 100 complete control)
# From the text: as §1, §2
# [13] = tested on: foxtail, giant (giant foxtail, Setaria faberi); assay: Test C postemergence, giant foxtail; conditions: visual injury, 0 to 100 scale (0 no effect, 100 complete control)
# From the text: as §1, §2
# [14] = tested on: goosegrass (Eleusine indica); assay: Test C postemergence, goosegrass; conditions: visual injury, 0 to 100 scale (0 no effect, 100 complete control)
# From the text: as §1, §2
# kochia (Bassia scoparia) [15] = assay: Test C postemergence, kochia; conditions: visual injury, 0 to 100 scale (0 no effect, 100 complete control)
# From the text: as §1, §2
# [16] = tested on: oat, wild (wild oat, Avena fatua); assay: Test C postemergence, wild oat; conditions: visual injury, 0 to 100 scale (0 no effect, 100 complete control)
# From the text: as §1, §2
# [17] = tested on: pigweed, palmer (palmer amaranth, Amaranthus palmeri); assay: Test C postemergence, palmer amaranth; conditions: visual injury, 0 to 100 scale (0 no effect, 100 complete control)
# From the text: as §1, §2
# [18] = tested on: ragweed (common ragweed, Ambrosia artemisiifolia); assay: Test C postemergence, ragweed; conditions: visual injury, 0 to 100 scale (0 no effect, 100 complete control)
# From the text: as §1, §2
# [19] = tested on: ryegrass, Italian (Italian ryegrass, Lolium multiflorum); assay: Test C postemergence, Italian ryegrass; conditions: visual injury, 0 to 100 scale (0 no effect, 100 complete control)
# From the text: as §1, §2
# soybean (Glycine max) [20] = assay: Test C postemergence, soybean; conditions: visual injury, 0 to 100 scale (0 no effect, 100 complete control)
# From the text: as §1, §2
# [21] = tested on: wheat (Triticum aestivum); assay: Test C postemergence, wheat; conditions: visual injury, 0 to 100 scale (0 no effect, 100 complete control)
# From the text: as §1, §2
# [22] = tested on: galium (catchweed bedstraw, Galium aparine); assay: Test C postemergence, galium; conditions: visual injury, 0 to 100 scale (0 no effect, 100 complete control)
# From the text: as §1, §2
# [23] = tested on: horseweed (Erigeron canadensis); assay: Test C postemergence, horseweed; conditions: 125 g ai/ha Postemergence; visual injury, 0 to 100 scale (0 no effect, 100 complete control)
# From the text: as §1, §2
# [24] = tested on: barnyardgrass (Echinochloa crusgalli); assay: Test D flooded paddy test, barnyardgrass; design: key: 0 = no effect, 100 = complete control; conditions: 250 g ai/ha, Flood; applied to paddy water at 2-leaf stage; visual rating after 13 days; scale 0 (no effect) to 100 (complete control)
# Protocol: (§3) Plant species in the flooded paddy test selected from barnyardgrass (Echinochloa crusgalli), ducksalad (Heteranthera limosa), rice (Oryza sativa), and sedge, umbrella (small-flower umbrella sedge, Cyperus difformis) were grown to the 2-leaf stage for testing. At time of treatment, test pots were flooded to 3 cm above the soil surface, treated by application of test compounds directly to the paddy water, and then maintained at that water depth for the duration of the test. Treated plants and controls were maintained in a greenhouse for 13 days, after which time all species were compared to controls and visually evaluated. Plant response ratings, summarized in Table B, are based on a scale of 0 to 100 where 0 is no effect and 100 is complete control. A dash (-) response means no test result.
# [25] = tested on: ducksalad (Heteranthera limosa); assay: Test D flooded paddy test, ducksalad; design: key: 0 = no effect, 100 = complete control; conditions: 250 g ai/ha, Flood; applied to paddy water at 2-leaf stage; visual rating after 13 days; scale 0 (no effect) to 100 (complete control)
# Protocol: as §3
# rice (Oryza sativa) = assay: Test D flooded paddy test, rice; design: key: 0 = no effect, 100 = complete control; conditions: 250 g ai/ha, Flood; applied to paddy water at 2-leaf stage; visual rating after 13 days; scale 0 (no effect) to 100 (complete control)
# Protocol: as §3
# [26] = tested on: sedge, umbrella (small-flower umbrella sedge, Cyperus difformis); assay: Test D flooded paddy test, umbrella sedge; design: key: 0 = no effect, 100 = complete control; conditions: 250 g ai/ha, Flood; applied to paddy water at 2-leaf stage; visual rating after 13 days; scale 0 (no effect) to 100 (complete control)
# Protocol: as §3
smiles,measurement,setting,value
Cc1c(NS(=O)(=O)C(F)(F)F)cc(N2CCC(OC3CC3)C2=O)c(C)c1C (stereo not shown) [Compound 47],"Plant response rating (0 to 100 scale), Corn",corn (Zea mays) [1]; 31 g ai/ha Preemergence,30
same,"Plant response rating (0 to 100 scale), Corn",corn (Zea mays) [1]; 125 g ai/ha Preemergence,90
same,"Plant response rating (0 to 100 scale), Foxtail, Giant",[2]; 31 g ai/ha Preemergence,100
same,"Plant response rating (0 to 100 scale), Foxtail, Giant",[2]; 125 g ai/ha Preemergence,100
same,"Plant response rating (0 to 100 scale), Goosegrass",[3]; 31 g ai/ha Preemergence,100
same,"Plant response rating (0 to 100 scale), Goosegrass",[3]; 125 g ai/ha Preemergence,100
same,"Plant response rating (0 to 100 scale), Kochia",kochia (Bassia scoparia) [4]; 31 g ai/ha Preemergence,70
same,"Plant response rating (0 to 100 scale), Kochia",kochia (Bassia scoparia) [4]; 125 g ai/ha Preemergence,100
same,"Plant response rating (0 to 100 scale), Oat, Wild",[5]; 31 g ai/ha Preemergence,80
same,"Plant response rating (0 to 100 scale), Oat, Wild",[5]; 125 g ai/ha Preemergence,100
same,"Plant response rating (0 to 100 scale), Pigweed, Palmer",[6]; 31 g ai/ha Preemergence,100
same,"Plant response rating (0 to 100 scale), Pigweed, Palmer",[6]; 125 g ai/ha Preemergence,100
same,"Plant response rating (0 to 100 scale), Ragweed",[7]; 31 g ai/ha Preemergence,70
same,"Plant response rating (0 to 100 scale), Ragweed",[7]; 125 g ai/ha Preemergence,100
same,"Plant response rating (0 to 100 scale), Ryegrass, Italian",[8]; 31 g ai/ha Preemergence,50
same,"Plant response rating (0 to 100 scale), Ryegrass, Italian",[8]; 125 g ai/ha Preemergence,90
same,"Plant response rating (0 to 100 scale), Soybean",soybean (Glycine max) [9]; 31 g ai/ha Preemergence,50
same,"Plant response rating (0 to 100 scale), Soybean",soybean (Glycine max) [9]; 125 g ai/ha Preemergence,90
same,"Plant response rating (0 to 100 scale), Wheat",[10]; 31 g ai/ha Preemergence,90
same,"Plant response rating (0 to 100 scale), Wheat",[10]; 125 g ai/ha Preemergence,100
same,Blackgrass plant response rating,[11]; 31 g ai/ha Postemergence,40
same,Blackgrass plant response rating,[11]; 125 g ai/ha Postemergence,70
same,Corn plant response rating,corn (Zea mays) [12]; 31 g ai/ha Postemergence,70
same,Corn plant response rating,corn (Zea mays) [12]; 125 g ai/ha Postemergence,90
same,"Foxtail, Giant plant response rating",[13]; 31 g ai/ha Postemergence,70
same,"Foxtail, Giant plant response rating",[13]; 125 g ai/ha Postemergence,90
same,Goosegrass plant response rating,[14]; 31 g ai/ha Postemergence,50
same,Goosegrass plant response rating,[14]; 125 g ai/ha Postemergence,90
same,Kochia plant response rating,kochia (Bassia scoparia) [15]; 31 g ai/ha Postemergence,40
same,Kochia plant response rating,kochia (Bassia scoparia) [15]; 125 g ai/ha Postemergence,80
same,"Oat, Wild plant response rating",[16]; 31 g ai/ha Postemergence,10
same,"Oat, Wild plant response rating",[16]; 125 g ai/ha Postemergence,60
same,"Pigweed, Palmer plant response rating",[17]; 31 g ai/ha Postemergence,30
same,"Pigweed, Palmer plant response rating",[17]; 125 g ai/ha Postemergence,70
same,Ragweed plant response rating,[18]; 31 g ai/ha Postemergence,60
same,Ragweed plant response rating,[18]; 125 g ai/ha Postemergence,80
same,"Ryegrass, Italian plant response rating",[19]; 31 g ai/ha Postemergence,50
same,"Ryegrass, Italian plant response rating",[19]; 125 g ai/ha Postemergence,90
same,Soybean plant response rating,soybean (Glycine max) [20]; 31 g ai/ha Postemergence,70
same,Soybean plant response rating,soybean (Glycine max) [20]; 125 g ai/ha Postemergence,90
same,Wheat plant response rating,[21]; 31 g ai/ha Postemergence,80
same,Wheat plant response rating,[21]; 125 g ai/ha Postemergence,80
same,Galium plant response rating,[22]; 31 g ai/ha Postemergence,80
same,Galium plant response rating,[22]; 125 g ai/ha Postemergence,90
same,Horseweed plant response rating,[23],100
same,"Plant response rating, Barnyardgrass",[24],75
same,"Plant response rating, Ducksalad",[25],95
same,"Plant response rating, Rice",rice (Oryza sativa),30
same,"Plant response rating, Sedge, Umbrella",[26],95
